Here are results for 9 compounds from article PMC6264390, “Design, Synthesis and Structure-activity Studies of Rhodanine Derivatives as HIV-1 Integrase Inhibitors” (Molecules, 2010).

Where two headings read alike, the source gives them in different places. Some results are limits rather than exact numbers.

The target in series [1] is T1, HIV-1 IN (Human immunodeficiency virus type 1 group M subtype B, UniProt P12497).
T1 construct: pre-incubated with purified recombinant IN (at a final concentration of 200 nM); made in house
As to the kind of experiment: In vitro IN inhibition assay (3’-processing and strand transfer). It counts as biochemical. The conditions noted are these: for IC50: Mn2+ cofactor (7.5 mM MnCl2); for IN inhibition (in words): highest concentration tested 100 μM. On the procedure: (§1) All compounds were dissolved in DMSO to a final stock concentration of 10 mM and stored at −20 °C. Initial screening for IN inhibitory effect was done at 100 μM and dilutions were made in DMSO. Compounds showing at least 50% inhibition at 100 μM were selected for IC50 determinations. γ-[^32P]-ATP was purchased from Perkin Elmer (Waltham, MA, USA). The expression system for wild-type IN was a generous gift of Dr. Robert Craigie, Laboratory of Molecular Biology, NIDDK, NIH (Bethesda, MD, USA). His-tagged APE1 was purified from an expression system kindly provided by Dr. Tom Curran, Department of Developmental Neurobiology, St. Jude Children’s Research Hospital (Memphis, TN, USA).
(§2) 21-mer oligonucleotides used in IN inhibition assay [21top (5’-[…]-3’) and 21bot (5’-ACTGCTAGAGATTTTCCA CAC-3’)] were purchased from Integrated DNA Technologies (Coralville, IA, USA) and purified by UV shadowing on polyacrylamide gel. The oligonucleotides used in APE1 inhibition assay [top strand: 5′-ATTTCACCGGTACG(F)TCTAGAATC CG-3′ containing the tetrahydrofuran synthetic abasic residue (F), and bottom strand: 3′-TAAAGTGG CCATGC(C)AGATCTTAGGC-5′] were purchased from The Midland Certified Reagent Company (Midland, TX, USA). To analyze the extent of 3’-processing and strand transfer with 5’-end labeled substrates, 21top was 5’-end labeled using T4 polynucleotide kinase (Epicentre, Madison, WI, USA) and [γ-^32P]-ATP (Perkin Elmer, Waltham, MA, USA). The kinase was heat-inactivated at 95 °C and 21bot was added in […]. The reaction mixture was allowed to cool slowly to room temperature, and purified through a spin-25 minicolumn (USA Scientific, Ocala, FL, USA) to separate annealed double-stranded oligonucleotide from unincorporated material. The oligonucleotides used in the APE1 inhibition assay were labeled using a similar protocol.
To determine the extent of 3’-processing and strand transfer, the test compounds, diluted in DMSO, were pre-incubated with purified recombinant IN (at a final concentration of 200 nM) in the reaction buffer [50 mM NaCl, 1 mM HEPES (pH 7.5), 50 μM EDTA, 50 μM dithiothreitol, 10% glycerol (w/v), 7.5 mM MnCl2, 0.1 mg mL–1 bovine serum albumin, 10 mM 2-mercaptoethanol, 10% dimethyl sulfoxide, and 25 mM MOPS (pH 7.2)] at 30 °C for 30 min. For Mg^2+ assay, 7.5 mM MgCl2 was substituted for MnCl2 and an optimal concentration of PEG was included in the reaction buffer. Following the pre-incubation, 20 nM of the 5’-end ^32P-labeled linear oligonucleotide substrate was added to the reaction mixture and incubated for an additional 1 h. Reactions were quenched by addition of 50X loading dye (98% deionized formamide, 10 mM EDTA, 0.025% xylene cyanol, and 0.025 % bromophenol blue). An aliquot was subjected to electrophoresis on a denaturing polyacrylamide gel (0.09 M tris–borate, pH 8.3, 2 mM EDTA, 20% acrylamide, 8M urea). Gels were dried under vacuum, exposed in a PhosphorImager cassette and visualized with a Typhoon 8610 Variable Mode Imager (Amersham Biosciences). Quantification was done with Image Quant 5.2 software. Percent inhibition (%I) was calculated using the following equation: %I = 100 × [1 − (D − C) / (N − C)] where C, N, and D are the fractions of 21-mer substrate converted into 19-mer (product of 3’-processing) or strand-transfer products for DNA alone, DNA plus IN, and DNA, IN plus test compound, respectively. IC50 values were determined by plotting the logarithm of test compound concentrations as a function of %I to obtain the concentration that produced 50% inhibition.

In series [2] the target is T2, human apurinic/apyrimidinic endonuclease 1 (APE1) (Homo sapiens, UniProt P27695).
T2 construct: His; made in house
Kind of series: APE1 inhibition assay. It counts as biochemical. The conditions noted are these: read-out: Inhibition of APE1 catalytic activity IC50. The procedure:
as §1, §2
APE1 inhibition assay was performed as previously described. To determine the extent of endonucleolytic cleavage of the abasic residue, the test compounds, diluted in DMSO, were preincubated with recombinant APE1 at a final concentration of 0.05 nM in the reaction buffer [50 mM NaCl, 1 mM HEPES, pH 7.5, 50 μM EDTA, 50 μM dithiothreitol, 10% glycerol (w/v), 7.5 mM MnCl2, 0.1 mg mL‑1 bovine serum albumin, 10 mM 2-mercaptoethanol, 10% DMSO, and 25 mM MOPS, pH 7.2] at 30 °C for 10 min. Following preincubation, 200 nM of the 5′-end ^32P-labeled linear oligonucleotide substrate was added, and incubated for an additional 10 minutes. Reactions were quenched by the addition of an equal volume (16 μL) of loading dye (98% deionized formamide, 10 mM EDTA, 0.025% xylene cyanol, and 0.025% bromophenol blue). An aliquot (5 μL) was electrophoresed on a denaturing 20% polyacrylamide gel (0.09 M tris-borate pH 8.3, 2 mM EDTA, 20% acrylamide, 8 M urea). The gels were dried, exposed in a PhosphorImager cassette and analyzed using a Typhoon 8610 Variable Mode Imager (Amersham Biosciences). Quantification of enzyme inhibition was done using Image Quant 5.2 software. The percent inhibition (% I) was calculated using the following equation: %I = 100 × [1 − (D − C) / (N − C)] where C, N, and D are the fractions of 26-mer substrate converted to 13-mer incision products (or integration products) for DNA alone, DNA plus APE1, and DNA, APE1 plus test compound, respectively. IC50 values were determined by plotting the logarithm of compound concentration as a function of %I to obtain the concentration that produced 50% inhibition. An optimum concentration of APE1 enzyme, at which there is complete conversion of the synthetic abasic-site containing oligonucleotide substrate to its cleaved product without subsequent exonuclease activity, was used in the assay.

[3] abbreviates: read-out: Inhibition of IN catalytic activity IC50, 3’-Processing.
[4] abbreviates: read-out: Inhibition of IN catalytic activity IC50, Strand Transfer.

T2 sequence (P27695 whole entry): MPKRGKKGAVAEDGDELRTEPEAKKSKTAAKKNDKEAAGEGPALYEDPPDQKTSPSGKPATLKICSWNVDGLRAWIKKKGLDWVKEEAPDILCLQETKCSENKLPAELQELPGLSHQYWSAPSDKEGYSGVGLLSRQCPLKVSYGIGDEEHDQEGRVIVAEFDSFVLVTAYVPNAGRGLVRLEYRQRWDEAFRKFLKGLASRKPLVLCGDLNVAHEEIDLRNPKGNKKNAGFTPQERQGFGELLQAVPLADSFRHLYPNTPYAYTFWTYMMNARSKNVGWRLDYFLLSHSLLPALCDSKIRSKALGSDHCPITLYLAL

By melting point is commonly meant the temperature of the solid-liquid transition. What is called IC50 is the concentration that inhibits the measured activity by half. As to `O=C(Nc1ccc(F)cc1)C(=S)NN1C(=O)C(=Cc2ccc([N+](=O)[O-])o2)SC1=S` [Compound 12, N-(4-fluorophenyl)-2-{5-[(5-nitro-2-furyl)methylene]-4-oxo-2-thioxo-1,3-thiazolidin-3-yl}amino-2-thioxoacetamide], the melting point was in the range of 155 to 156 °C. Also, the IC50 in series [1] (setting [3]) came to 100 µM. In series [1] (setting [4]), the IC50 came out at 93 µM. Moreover, in series [2], the IC50 is 89 ± 13 µM.

The compound `CCOc1cccc(C=C2SC(=S)N(NC(=S)C(=O)Nc3cc(OC)c(OC)c(OC)c3)C2=O)c1O` [Compound 31, 2-{[5-(3-Ethoxy-2-hydroxybenzylidene)-4-oxo-2-thioxo-1,3-thiazolidin-3-yl]amino}-2-thioxo-N-(3,4,5-trimethoxyphenyl)acetamide] yielded a melting point of 231 to 232 °C. For the same compound, the IC50 in series [1] (setting [3]) is > 100 µM. Besides, in series [1] (setting [4]), the IC50 was > 100 µM. The IC50 in series [2] is > 100 µM.

With `O=C(Nc1cccc([N+](=O)[O-])c1)C(=S)NN1C(=O)C(=Cc2ccc(Cl)cc2)SC1=S` [Compound 8, 2-{[5-(4-Chlorobenzylidene)-4-oxo-2-thioxo-1,3-thiazolidin-3-yl]amino}-N-(3-nitrophenyl)-2-thioxo-acetamide], the melting point lay within 221 to 222 °C. Besides, the IC50 in series [1] (setting [3]) was > 100 µM. Also, the IC50 in series [1] (setting [4]) is > 100 µM. In series [1], the “IN inhibition (in words)” value is “lacked any IN inhibitory activity”. In series [2], the IC50 is 76 ± 5 µM.

`O=C(Nc1cccc(C(F)(F)F)c1)C(=S)NN1C(=O)C(=Cc2ccc([N+](=O)[O-])o2)SC1=S` [Compound 15, 2-{5-[(5-Nitro-2-furyl)methylene]-4-oxo-2-thioxo-1,3-thiazolidin-3-yl}amino-2-thioxo-N-[3-(trifluoro-methyl)phenyl]acetamide] came in with a melting point of 163 to 164 °C. Also, the IC50 in series [1] (setting [3]) turned out to be 61 ± 35 µM. For the same compound, in series [1] (setting [4]), the IC50 is 56 ± 11 µM.

Compound `O=C(Nc1ccc(Cl)cc1)C(=S)NN1C(=O)C(=Cc2ccc(Cl)cc2)SC1=S` [Compound 7, 2-{[5-(4-Chlorobenzylidene)-4-oxo-2-thioxo-1,3-thiazolidin-3-yl]amino}-N-(4-chlorophenyl)-2-thioxo-acetamide] returned a melting point of 211 to 212 °C. Besides, the IC50 in series [1] (setting [3]) was > 100 µM. Besides, in series [1] (setting [4]), the IC50 is > 100 µM. Further, the “IN inhibition (in words)” value in series [1] is recorded as “lacked any IN inhibitory activity”.

With “2-{[5-(2-Hydroxy-3,5-diisopropylbenzylidene)-4-oxo-2-thioxo-1,3-thiazolidin-3-yl]amino}-N-(3,4,5-trimethoxyphenyl)-2-thioxoacetamide [Compound 40]”, the IC50 in series [1] (setting [3]) was > 100 µM; in series [1] (setting [4]), 95 µM; in series [2], > 100 µM.

Regarding `COc1cc(/C=C2/SC(=S)N(NC(=S)C(=O)Nc3cc(C(F)(F)F)cc(C(F)(F)F)c3)C2=O)cc(OC)c1OC` [Compound 26, N-[3,5-bis(trifluoromethyl)phenyl]-2-{[4-oxo-2-thioxo-5-(3,4,5-trimethoxybenzylidene)-1,3-thiazol-idin-3-yl]amino}-2-thioxoacetamide], the melting point lay in the range of 187 to 188 °C. Besides, in series [1] (setting [3]), the IC50 is > 100 µM. Moreover, in series [1] (setting [4]), the IC50 was > 100 µM.

On to “2-{[5-(5-Bromo-2-hydroxy-3-methoxybenzylidene)-4-oxo-2-thioxo-1,3-thiazolidin-3-yl]amino}-N-(3,4,5-trimethoxyphenyl)acetamide [Compound 38]”, for which the figures for the IC50 in series [1] (setting [3]), in series [1] (setting [4]) and in series [2] were 51 ± 25 µM, 32 ± 11 µM and 65 ± 33 µM, respectively.

“2-{[5-(2-Hydroxy-3,5-diisopropylbenzylidene)-4-oxo-2-thioxo-1,3-thiazolidin-3-yl]amino}-N-(4-hydroxyphenyl)-2-thioxoacetamide [Compound 54]”: the IC50 in series [1] (setting [3]), in series [1] (setting [4]) and in series [2] was > 100 µM each time. In addition, in series [1], the “IN inhibition (in words)” value was “loss of activity”.
